Values of other authors, collected in US20070082064A1, “Nutritional or dietary supplement for the treatment of macular degeneration” (priority 2005, published 2007).

vitamin E
risk of death (daily dose of 200 IU per day): no increased risk of death | risk of death higher than among those taking placebos (daily doses of 400 IU or more, meta-analysis of 19 trials, more than 136,000 patients): about 10%
